# Test results reported in US7342011B2, “Rifamycin analogs and uses thereof” (priority 2003, dated 2008).
# System: E. coli
# Test: MIC assay, E. coli
# Assay type: cell-based
row,Compound,MIC (μg/mL) E. coli [µg/mL]
1,CCOC(=O)NC1CCN(c2ccc3nc4c5c6c7c(C)c(O)c5c(=O)c(c-4n(C)c3c2)NC(=O)/C(C)=C\C=C\[C@H](C)[C@H](O)[C@@H](C)[C@@H](O)[C@@H](C)[C@H](O)[C@H](C)[C@@H](OC)/C=C/O[C@@](C)(O7)C6=O)CC1 [Compound 31],8
2,"CCNC(=O)NC1CCN(c2cc(O)c3nc4c5c6c7c(C)c(O)c5c(=O)c(c-4oc3c2)NC(=O)/C(C)=C\C=C\[C@H](C)[C@H](O)[C@@H](C)[C@@H](O)[C@@H](C)[C@H](OC(C)=O)[C@H](C)[C@@H](OC)/C=C/O[C@@](C)(O7)C6=O)CC1 [Compound 34, 3′-hydroxy-5′-[4-ethyluryl-1-piperidinyl]benzoxazinorifamycin]",8
3,"CCCC(=O)NC1CCN(c2cc(O)c3nc4c5c6c7c(C)c(O)c5c(=O)c(c-4oc3c2)NC(=O)C(C)=CC=CC(C)C(O)C(C)C(O)C(C)C(O)C(C)C(OC)C=COC(C)(O7)C6=O)CC1 (stereo not shown) [Compound 36, 25-O-deacetyl-3′-hydroxy-5′-[4-butanamide-1-piperidinyl]benzoxazinorifamycin]",>8
4,"CCOC(=O)NCC1CCN(c2cc(O)c3nc4c5c6c7c(C)c(O)c5c(=O)c(c-4oc3c2)NC(=O)C(C)=CC=CC(C)C(O)C(C)C(O)C(C)C(O)C(C)C(OC)C=COC(C)(O7)C6=O)CC1 (stereo not shown) [Compound 60, 25-O-deacetyl-3′-hydroxy-5′-[4-ethylcarbamylmethyl-1-piperidinyl]benzoxazinorifamycin]",>8
5,CCOC(=O)NC1C2CN(c3cc(O)c4nc5c6c7c8c(C)c(O)c6c(=O)c(c-5oc4c3)NC(=O)C(C)=CC=CC(C)C(O)C(C)C(O)C(C)C(OC(C)=O)C(C)C(OC)C=COC(C)(O8)C7=O)CC21 (stereo not shown) [Compound 21],4
6,"CCNC(=O)NC1CCN(c2cc(O)c3nc4c5c6c7c(C)c(O)c5c(=O)c(c-4oc3c2)NC(=O)C(C)=CC=CC(C)C(O)C(C)C(O)C(C)C(O)C(C)C(OC)C=COC(C)(O7)C6=O)CC1 (stereo not shown) [Compound 37, 25-O-deacetyl-3′-hydroxy-5′-[4-ethyluryl-1-piperidinyl]benzoxazinorifamycin]",>8
7,COC1C=COC2(C)Oc3c(C)c(O)c4c(=O)c(c5oc6cc(N7CCC(NS(=O)(=O)C(F)(F)F)CC7)cc(O)c6nc-5c4c3C2=O)NC(=O)C(C)=CC=CC(C)C(O)C(C)C(O)C(C)C(O)C1C (stereo not shown) [Compound 38],>8
8,CO[C@H]1/C=C/O[C@@]2(C)Oc3c(C)c(O)c4c(=O)c(c5oc6cc(N7CCC(NC(=O)OCC(C)C)CC7)cc(O)c6nc-5c4c3C2=O)NC(=O)/C(C)=C\C=C\[C@H](C)[C@H](O)[C@@H](C)[C@@H](O)[C@@H](C)[C@H](OC(C)=O)[C@@H]1C [Compound 13],4
9,"CO[C@H]1/C=C/O[C@@]2(C)Oc3c(C)c(O)c4c(=O)c(c5oc6cc(N7CCC(N)CC7)cc(O)c6nc-5c4c3C2=O)NC(=O)/C(C)=C\C=C\[C@H](C)[C@H](O)[C@@H](C)[C@@H](O)[C@@H](C)[C@H](OC(C)=O)[C@@H]1C [Compound 33, 3′-hydroxy-5′-[4-amino-1-piperidinyl]benzoxazinorifamycin]",>8
10,"COC1C=COC2(C)Oc3c(C)c(O)c4c(=O)c(c5oc6cc(N7CCC(c8ccccc8)CC7)cc(O)c6nc-5c4c3C2=O)NC(=O)C(C)=CC=CC(C)C(O)C(C)C(O)C(C)C(O)C1C (stereo not shown) [Compound 62, 25-O-deacetyl-3′-hydroxy-5′-[4-phenyl-1-piperidinyl]benzoxazinorifamycin]",>8
11,"CO[C@H]1/C=C/O[C@@]2(C)Oc3c(C)c(O)c4c(=O)c(c5oc6cc(N7CC8CCC(C7)N8)cc(O)c6nc-5c4c3C2=O)NC(=O)/C(C)=C\C=C\[C@H](C)[C@H](O)[C@@H](C)[C@@H](O)[C@@H](C)[C@H](OC(C)=O)[C@@H]1C [Compound 10, 3′-hydroxy-5′-(3,8-diazabicyclo[3.2.1]octan-3-yl)benzoxazinorifamycin]",>8
12,"COC(=O)NC1CCN(c2cc(O)c3nc4c5c6c7c(C)c(O)c5c(=O)c(c-4oc3c2)NC(=O)/C(C)=C\C=C\[C@H](C)[C@H](O)[C@@H](C)[C@@H](O)[C@@H](C)[C@H](O)[C@H](C)[C@@H](OC)/C=C/O[C@@](C)(O7)C6=O)CC1 [Compound 30, 25-O-deacetyl-3′-hydroxy-5′-[4-methylcarbamyl-1-piperidinyl]benzoxazinorifamycin]",>8
13,"CO[C@H]1/C=C/O[C@@]2(C)Oc3c(C)c(O)c4c(=O)c(c5oc6cc(N7C[C@H]8CCCN[C@H]8C7)cc(O)c6nc-5c4c3C2=O)NC(=O)/C(C)=C\C=C\[C@H](C)[C@H](O)[C@@H](C)[C@@H](O)[C@@H](C)[C@H](OC(C)=O)[C@@H]1C [Compound 12, 3′-hydroxy-5′-[(4aR,7aR)-octahydro-6H-pyrrolo[3,4-b]pyridin-6-yl]benzoxazinorifamycin]",8
14,"COC1C=COC2(C)Oc3c(C)c(O)c4c(=O)c(c5oc6cc(N7CCC(NC(=O)OC(C)(C)C)CC7)cc(O)c6nc-5c4c3C2=O)NC(=O)C(C)=CC=CC(C)C(O)C(C)C(O)C(C)C(O)C1C (stereo not shown) [Compound 52, 25-O-deacetyl-3′-hydroxy-5′-[4-(2,2-dimethylethyl)carbamyl-1-piperidinyl]benzoxazinorifamycin]",>8
15,"COC1C=COC2(C)Oc3c(C)c(O)c4c(=O)c(c5oc6cc(N7CCC(NC(C)=O)CC7)cc(O)c6nc-5c4c3C2=O)NC(=O)C(C)=CC=CC(C)C(O)C(C)C(O)C(C)C(O)C1C (stereo not shown) [Compound 43, 25-O-deacetyl-3′-hydroxy-5′-[4-acetamide-1-piperidinyl]benzoxazinorifamycin]",>8
16,"CO[C@H]1/C=C/O[C@@]2(C)Oc3c(C)c(O)c4c(=O)c(c5oc6cc(N7CCC(N8CCOCC8)CC7)cc(O)c6nc-5c4c3C2=O)NC(=O)/C(C)=C\C=C\[C@H](C)[C@H](O)[C@@H](C)[C@@H](O)[C@@H](C)[C@H](OC(C)=O)[C@@H]1C [Compound 9, 3′-hydroxy-5′-(4-morpholinyl-1-piperidinyl)benzoxazinorifamycin]",8
17,"COC1C=COC2(C)Oc3c(C)c(O)c4c(=O)c(c5oc6cc(N7CCC(C)(NC(C)=O)CC7)cc(O)c6nc-5c4c3C2=O)NC(=O)C(C)=CC=CC(C)C(O)C(C)C(O)C(C)C(O)C1C (stereo not shown) [Compound 74, 25-O-deacetyl-3′-hydroxy-5′-[4-methyl-4-acetylamino-1-piperidinyl]benzoxazinorifamycin]",>8
18,"COC1C=COC2(C)Oc3c(C)c(O)c4c(=O)c(c5oc6cc(N7CC8C(N)C8C7)cc(O)c6nc-5c4c3C2=O)NC(=O)C(C)=CC=CC(C)C(O)C(C)C(O)C(C)C(O)C1C [Compound 20, 25-O-deacetyl-3′-hydroxy-5′-[6-amino-(1R,5S)-3-azabicyclo[3.1.0]hex-3-yl]benzoxazinorifamycin]",>8
19,"COC1C=COC2(C)Oc3c(C)c(O)c4c(=O)c(c5oc6cc(N7CC8C(C7)C8NC(=O)OCC[Si](C)(C)C)cc(O)c6nc-5c4c3C2=O)NC(=O)C(C)=CC=CC(C)C(O)C(C)C(O)C(C)C(OC(C)=O)C1C [Compound 2, 3′-hydroxy-5′-[6-(2-trimethylsilyl)ethylcarbamyl-(1R,5S)-3-azabicyclo[3.1.0]hex-3-yl]benzoxazinorifamycin]",>8
